Values after ≈ are worked out from the molar mass of the structure shown.
How the values were obtained:
[1] = tested on: Staphylococcus aureus; test: Antibacterial activity against Staphylococcus aureus ATCC 29213 assessed as reduction in bacterial growth incubated for 1 day by paper disk diffusion method; assay type: functional; settings: ATCC 29213, 24 h
[2] = tested on: Enterococcus faecalis; test: Bactericidal activity against Enterococcus faecalis ATCC 29212 incubated for 24 hrs followed by transferring to freshly prepared broth medium and measured after 24 hrs by broth microdilution assay; assay type: functional; settings: time 48 hrs
[3] = tested on: Salmonella typhimurium; test: Antibacterial activity against Salmonella typhi ATCC 6539 assessed as diameter of inhibition zone at 0.5 mg/ml incubated for 24 hrs by agar diffusion method; assay type: functional, Salmonella enterica subsp. enterica serovar Typhimurium; settings: Salmonella enterica, read-out: DIZ
[4] = tested on: Staphylococcus aureus; test: Bactericidal activity against Staphylococcus aureus ATCC 29213 incubated for 24 hrs followed by transferring to freshly prepared broth medium and measured after 24 hrs by broth microdilution assay; assay type: functional; settings: time 48 hrs
[5] = tested on: Escherichia coli; test: Antibacterial activity against Escherichia coli ATCC 25922 assessed as diameter of inhibition zone at 0.5 mg/ml incubated for 24 hrs by agar diffusion method; assay type: functional; settings: read-out: DIZ
[6] = tested on: Escherichia coli; test: Antibacterial activity against multidrug resistant Escherichia coli ATCC BAA-196 assessed as reduction in bacterial growth incubated for 1 day by paper disk diffusion method; assay type: functional; settings: ATCC BAA-196, 24 h
[7] = target: DNA gyrase (Staphylococcus aureus, UniProt P0A0K8+P20831); test: Inhibition of Staphylococcus aureus DNA gyrase using relaxed pBR322 DNA as substrate incubated for 45 mins by agarose gel electrophoresis method; assay type: protein-complex assay
DNA gyrase, sequence (P0A0K8 whole entry): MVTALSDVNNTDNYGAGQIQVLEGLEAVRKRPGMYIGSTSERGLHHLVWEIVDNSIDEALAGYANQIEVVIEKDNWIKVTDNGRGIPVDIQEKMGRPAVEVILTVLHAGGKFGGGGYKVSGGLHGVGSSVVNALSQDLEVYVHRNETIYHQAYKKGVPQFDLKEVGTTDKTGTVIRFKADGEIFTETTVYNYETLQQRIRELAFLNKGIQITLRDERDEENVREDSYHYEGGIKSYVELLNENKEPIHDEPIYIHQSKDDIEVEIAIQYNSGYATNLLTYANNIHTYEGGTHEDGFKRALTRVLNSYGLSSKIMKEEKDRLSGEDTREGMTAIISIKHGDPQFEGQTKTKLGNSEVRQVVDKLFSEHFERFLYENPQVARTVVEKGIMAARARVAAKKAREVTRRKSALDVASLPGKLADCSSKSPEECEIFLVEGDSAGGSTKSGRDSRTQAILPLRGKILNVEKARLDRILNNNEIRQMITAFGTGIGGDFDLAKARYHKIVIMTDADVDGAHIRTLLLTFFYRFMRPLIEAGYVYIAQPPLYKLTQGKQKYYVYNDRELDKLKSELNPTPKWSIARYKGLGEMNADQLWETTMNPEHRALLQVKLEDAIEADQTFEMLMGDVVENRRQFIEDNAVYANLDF
DNA gyrase, sequence (P20831 whole entry): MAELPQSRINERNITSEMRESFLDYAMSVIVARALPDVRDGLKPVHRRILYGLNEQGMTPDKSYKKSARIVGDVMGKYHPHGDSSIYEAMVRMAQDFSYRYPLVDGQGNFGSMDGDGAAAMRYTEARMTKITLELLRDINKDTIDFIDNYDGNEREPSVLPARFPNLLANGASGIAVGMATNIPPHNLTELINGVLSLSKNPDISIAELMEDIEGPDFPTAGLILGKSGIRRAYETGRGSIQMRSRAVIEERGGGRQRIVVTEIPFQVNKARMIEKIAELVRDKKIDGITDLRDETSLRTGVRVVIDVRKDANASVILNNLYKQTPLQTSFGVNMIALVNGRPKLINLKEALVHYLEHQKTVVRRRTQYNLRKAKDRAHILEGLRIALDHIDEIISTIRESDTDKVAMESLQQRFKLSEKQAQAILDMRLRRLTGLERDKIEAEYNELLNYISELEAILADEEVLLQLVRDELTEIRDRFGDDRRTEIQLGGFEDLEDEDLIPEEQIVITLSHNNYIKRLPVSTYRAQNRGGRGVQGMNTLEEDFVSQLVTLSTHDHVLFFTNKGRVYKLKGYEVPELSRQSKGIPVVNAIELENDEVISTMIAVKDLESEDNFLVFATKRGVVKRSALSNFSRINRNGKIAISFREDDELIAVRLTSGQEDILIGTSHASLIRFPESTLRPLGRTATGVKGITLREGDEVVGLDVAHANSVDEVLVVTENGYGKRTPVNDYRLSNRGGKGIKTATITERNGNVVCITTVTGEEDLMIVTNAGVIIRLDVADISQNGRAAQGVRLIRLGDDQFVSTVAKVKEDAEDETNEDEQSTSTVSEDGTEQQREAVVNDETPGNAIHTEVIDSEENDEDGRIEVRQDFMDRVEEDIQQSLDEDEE

[8] = tested on: Candida albicans; test: Fungicidal activity against Candida albicans ATCC 10231 incubated for 24 hrs followed by transferring to freshly prepared broth medium and measured after 24 hrs by broth microdilution assay; assay type: functional; settings: time 48 hrs
[9] = tested on: Escherichia coli; test: Bactericidal activity against Escherichia coli ATCC BAA-196 incubated for 24 hrs followed by transferring to freshly prepared broth medium and measured after 24 hrs by broth microdilution assay; assay type: functional; settings: time 48 hrs
[10] = tested on: Salmonella typhimurium; test: Antibacterial activity against Salmonella typhi ATCC 6539 assessed as reduction in bacterial growth incubated for 1 day by paper disk diffusion method; assay type: functional, Salmonella enterica subsp. enterica serovar Typhimurium; settings: Salmonella enterica, ATCC 6539, 24 h
[11] = tested on: Staphylococcus aureus; test: Bactericidal activity against Staphylococcus aureus ATCC 33591 incubated for 24 hrs followed by transferring to freshly prepared broth medium and measured after 24 hrs by broth microdilution assay; assay type: functional; settings: time 48 hrs
[12] = tested on: Staphylococcus aureus; test: Antibacterial activity against multidrug resistant Staphylococcus aureus ATCC 33591 assessed as diameter of inhibition zone at 0.5 mg/ml incubated for 24 hrs by agar diffusion method; assay type: functional; settings: read-out: DIZ
[13] = tested on: Enterococcus faecalis; test: Antibacterial activity against Enterococcus faecalis ATCC 29212 assessed as reduction in bacterial growth incubated for 1 day by paper disk diffusion method; assay type: functional; settings: ATCC 29212, 24 h
[14] = tested on: Salmonella typhimurium; test: Bactericidal activity against Salmonella typhi ATCC 6539 incubated for 24 hrs followed by transferring to freshly prepared broth medium and measured after 24 hrs by broth microdilution assay; assay type: functional, Salmonella enterica subsp. enterica serovar […]; settings: Salmonella enterica, time 48 hrs
[15] = tested on: Staphylococcus aureus; test: Antibacterial activity against multidrug resistant Staphylococcus aureus ATCC 43300 assessed as reduction in bacterial growth incubated for 1 day by paper disk diffusion method; assay type: functional; settings: ATCC 43300, 24 h
[16] = tested on: Staphylococcus aureus; test: Antibacterial activity against Staphylococcus aureus ATCC 29213 assessed as diameter of inhibition zone at 0.5 mg/ml incubated for 24 hrs by agar diffusion method; assay type: functional; settings: read-out: DIZ
[17] = tested on: Escherichia coli; test: Bactericidal activity against Escherichia coli ATCC 25922 incubated for 24 hrs followed by transferring to freshly prepared broth medium and measured after 24 hrs by broth microdilution assay; assay type: functional; settings: time 48 hrs
[18] = tested on: Staphylococcus aureus; test: Bactericidal activity against Staphylococcus aureus ATCC 43300 incubated for 24 hrs followed by transferring to freshly prepared broth medium and measured after 24 hrs by broth microdilution assay; assay type: functional; settings: time 48 hrs
[19] = tested on: Candida albicans; test: Antifungal activity against Candida albicans ATCC 10231 assessed as diameter of inhibition zone at 0.5 mg/ml incubated for 24 hrs by agar diffusion method; assay type: functional; settings: read-out: DIZ
[20] = tested on: Escherichia coli; test: Antibacterial activity against Escherichia coli ATCC 25922 assessed as reduction in bacterial growth incubated for 1 day by paper disk diffusion method; assay type: functional; settings: ATCC 25922, 24 h
[21] = tested on: Enterococcus faecalis; test: Antibacterial activity against Enterococcus faecalis ATCC 29212 assessed as diameter of inhibition zone at 0.5 mg/ml incubated for 24 hrs by agar diffusion method; assay type: functional; settings: read-out: DIZ
[22] = tested on: Pseudomonas aeruginosa; test: Antibacterial activity against multidrug resistant Pseudomonas aeruginosa ATCC BAA-2111 assessed as diameter of inhibition zone at 0.5 mg/ml incubated for 24 hrs by agar diffusion method; assay type: functional; settings: read-out: DIZ
[23] = tested on: Neutrophil; test: Immunomodulatory activity in human neutrophils infected with bacteria assessed as increase in bacterial killing by measuring reduced NBT incubated for 30 mins by NBT dye based spectrophotometry; assay type: functional; parameters: concentration or dose not given beside the values; settings: 0.5 h
[24] = tested on: Aspergillus brasiliensis; test: Antifungal activity against Aspergillus brasiliensis ATCC 16404 assessed as diameter of inhibition zone at 0.5 mg/ml incubated for 72 hrs by agar diffusion method; assay type: functional; settings: read-out: DIZ
[25] = tested on: Pseudomonas aeruginosa; test: Antibacterial activity against multidrug resistant Pseudomonas aeruginosa ATCC BAA-2111 assessed as reduction in bacterial growth incubated for 1 day by paper disk diffusion method; assay type: functional; settings: ATCC BAA-2111, 24 h
[26] = tested on: Staphylococcus aureus; test: Antibacterial activity against multidrug resistant Staphylococcus aureus ATCC 33591 assessed as reduction in bacterial growth incubated for 1 day by paper disk diffusion method; assay type: functional; settings: ATCC 33591, 24 h
[27] = tested on: Pseudomonas aeruginosa; test: Bactericidal activity against Pseudomonas aeruginosa ATCC BAA-2111 incubated for 24 hrs followed by transferring to freshly prepared broth medium and measured after 24 hrs by broth microdilution assay; assay type: functional; settings: time 48 hrs
[28] = tested on: Candida albicans; test: Antifungal activity against Candida albicans ATCC 10231 assessed as reduction in bacterial growth incubated for 1 day by paper disk diffusion method; assay type: functional; settings: ATCC 10231, 24 h
[29] = tested on: Aspergillus brasiliensis; test: Fungicidal activity against Aspergillus brasiliensis ATCC 16404 incubated for 72 hrs followed by transferring to freshly prepared broth medium and measured after 24 hrs by broth microdilution assay; assay type: functional; settings: time 96 hrs
[30] = tested on: Staphylococcus aureus; test: Antibacterial activity against multidrug resistant Staphylococcus aureus ATCC 43300 assessed as diameter of inhibition zone at 0.5 mg/ml incubated for 24 hrs by agar diffusion method; assay type: functional; settings: read-out: DIZ
[31] = tested on: Escherichia coli; test: Antibacterial activity against multidrug resistant Escherichia coli ATCC BAA-196 assessed as diameter of inhibition zone at 0.5 mg/ml incubated for 24 hrs by agar diffusion method; assay type: functional; settings: read-out: DIZ
[32] = tested on: Aspergillus brasiliensis; test: Antifungal activity against Aspergillus brasiliensis ATCC 16404 assessed as reduction in bacterial growth incubated for 3 days by paper disk diffusion method; assay type: functional; settings: ATCC 16404, 72 h, time 3 day

CC(=O)C1=C(c2ccccc2)OC(N)=C(C#N)C12C(=O)Nc1ccc(S(=O)(=O)N3CCCCC3)cc12 (stereo unspecified)
MIC [1]: 35.5 µg/mL (≈ 70.5 µM) | MBC [2]: 43.7 µg/mL (≈ 86.7 µM) | zone of inhibition at 500 µg/mL [3]: 22 mm | MBC [4]: 58.6 µg/mL (≈ 116 µM) | zone of inhibition at 500 µg/mL [5]: 22 mm | MIC [6]: 0.97 µg/mL (≈ 1.92 µM) | IC50 [7]: 18.1 µM | MFC [8]: 31.2 µg/mL (≈ 61.9 µM) | MBC [9]: 1.55 µg/mL (≈ 3.07 µM) | MIC [10]: 62.5 µg/mL (≈ 124 µM) | MBC [11]: 1.56 µg/mL (≈ 3.09 µM) | zone of inhibition at 500 µg/mL [12]: 26 mm | MIC [13]: 31.5 µg/mL (≈ 62.4 µM) | MBC [14]: 87.5 µg/mL (≈ 173 µM) | MIC [15]: 0.97 µg/mL (≈ 1.92 µM) | zone of inhibition at 500 µg/mL [16]: 24 mm | MBC [17]: 28.4 µg/mL (≈ 56.3 µM) | MBC [18]: 1.94 µg/mL (≈ 3.84 µM) | zone of inhibition at 500 µg/mL [19]: 23 mm | MIC [20]: 17.8 µg/mL (≈ 35.2 µM) | zone of inhibition at 500 µg/mL [21]: 23 mm | zone of inhibition at 500 µg/mL [22]: 25 mm | Activity [23]: 972% | zone of inhibition at 500 µg/mL [24]: 19 mm | MIC [25]: 1.95 µg/mL (≈ 3.86 µM) | MIC [26]: 0.78 µg/mL (≈ 1.55 µM) | MBC [27]: 3.9 µg/mL (≈ 7.73 µM) | MIC [28]: 15.6 µg/mL (≈ 31 µM) | MFC [29]: 150 µg/mL (≈ 298 µM) | zone of inhibition at 500 µg/mL [30]: 25 mm | zone of inhibition at 500 µg/mL [31]: 27 mm | MIC [32]: 88.3 µg/mL (≈ 175 µM)

N#CC(C#N)=C1C(=O)Nc2ccc(S(=O)(=O)N3CCOCC3)cc21
MIC [1]: 35.5 µg/mL (≈ 103 µM) | MBC [2]: 11.5 µg/mL (≈ 33.5 µM) | zone of inhibition at 500 µg/mL [3]: 23 mm | MBC [4]: 46.2 µg/mL (≈ 134 µM) | zone of inhibition at 500 µg/mL [5]: 25 mm | MIC [6]: 3.9 µg/mL (≈ 11.3 µM) | IC50 [7]: 26.4 µM | MFC [8]: 12.5 µg/mL (≈ 36.3 µM) | MBC [9]: 6.24 µg/mL (≈ 18.1 µM) | MIC [10]: 15.6 µg/mL (≈ 45.4 µM) | MBC [11]: 8.88 µg/mL (≈ 25.8 µM) | zone of inhibition at 500 µg/mL [12]: 24 mm | MIC [13]: 8.88 µg/mL (≈ 25.8 µM) | MBC [14]: 28.1 µg/mL (≈ 81.6 µM) | MIC [15]: 3.9 µg/mL (≈ 11.3 µM) | zone of inhibition at 500 µg/mL [16]: 24 mm | MBC [17]: 15.6 µg/mL (≈ 45.4 µM) | MBC [18]: 5.04 µg/mL (≈ 14.6 µM) | zone of inhibition at 500 µg/mL [19]: 22 mm | MIC [20]: 7.81 µg/mL (≈ 22.7 µM) | zone of inhibition at 500 µg/mL [21]: 23 mm | zone of inhibition at 500 µg/mL [22]: 23 mm | Activity [23]: 145.7% | zone of inhibition at 500 µg/mL [24]: 19 mm | MIC [25]: 4.44 µg/mL (≈ 12.9 µM) | MIC [26]: 4.44 µg/mL (≈ 12.9 µM) | MBC [27]: 7.99 µg/mL (≈ 23.2 µM) | MIC [28]: 6.25 µg/mL (≈ 18.2 µM) | MFC [29]: 100 µg/mL (≈ 290 µM) | zone of inhibition at 500 µg/mL [30]: 24 mm | zone of inhibition at 500 µg/mL [31]: 25 mm | MIC [32]: 62.5 µg/mL (≈ 182 µM)

CC(=O)C1=C(c2ccccc2)OC(N)=C(C#N)C12C(=O)Nc1ccc(S(=O)(=O)N3CCOCC3)cc12 (stereo unspecified)
MIC [1]: 17.8 µg/mL (≈ 35.1 µM) | MBC [2]: 20 µg/mL (≈ 39.5 µM) | zone of inhibition at 500 µg/mL [3]: 22 mm | MBC [4]: 23.1 µg/mL (≈ 45.6 µM) | zone of inhibition at 500 µg/mL [5]: 23 mm | MIC [6]: 6.25 µg/mL (≈ 12.3 µM) | IC50 [7]: 24.8 µM | MFC [8]: 31.2 µg/mL (≈ 61.7 µM) | MBC [9]: 5.85 µg/mL (≈ 11.5 µM) | MIC [10]: 62.5 µg/mL (≈ 123 µM) | MBC [11]: 1.94 µg/mL (≈ 3.83 µM) | zone of inhibition at 500 µg/mL [12]: 26 mm | MIC [13]: 12.5 µg/mL (≈ 24.7 µM) | MBC [14]: 81.2 µg/mL (≈ 160 µM) | MIC [15]: 0.97 µg/mL (≈ 1.91 µM) | zone of inhibition at 500 µg/mL [16]: 24 mm | MBC [17]: 21.2 µg/mL (≈ 42 µM) | MBC [18]: 145 µg/mL (≈ 286 µM) | zone of inhibition at 500 µg/mL [19]: 23 mm | MIC [20]: 12.5 µg/mL (≈ 24.7 µM) | zone of inhibition at 500 µg/mL [21]: 26 mm | zone of inhibition at 500 µg/mL [22]: 22 mm | Activity [23]: 123.5% | zone of inhibition at 500 µg/mL [24]: 20 mm | MIC [25]: 4.44 µg/mL (≈ 8.77 µM) | MIC [26]: 0.97 µg/mL (≈ 1.91 µM) | MBC [27]: 6.66 µg/mL (≈ 13.1 µM) | MIC [28]: 15.6 µg/mL (≈ 30.8 µM) | MFC [29]: 108 µg/mL (≈ 213 µM) | zone of inhibition at 500 µg/mL [30]: 25 mm | zone of inhibition at 500 µg/mL [31]: 23 mm | MIC [32]: 71.8 µg/mL (≈ 142 µM)
